Patent US12371454B2, “Cyclic peptide compound having Kras inhibitory action” (priority 2019, dated 2025)
Starred links: 1 amine or outer side, 2 acyl side, 3 side chain; linkers in the order of their positions; H or OH if unused. Positions of bridges follow the written chain, without caps; N, C: chain ends. Non-standard residues stand in square brackets, D forms with d. Residues, ends and D or L forms follow the SMILES beside them. *: point of attachment. hPhe(3-Cl-4-CF3) = N[C@@H](CCc1ccc(C(F)(F)F)c(Cl)c1)C(=O)O; hPhe(3-F,4-CF3) = N[C@@H](CCc1ccc(C(F)(F)F)c(F)c1)C(=O)O; hPhe(4-CF3) = N[C@@H](CCc1ccc(C(F)(F)F)cc1)C(=O)O; Phe(2-CF3) = N[C@@H](Cc1ccccc1C(F)(F)F)C(=O)O; Thiomorpholino(1,1-dioxo) = O=S1(=O)CCN(*)CC1; NMe3Pal(6-Me) = CN[C@@H](Cc1ccc(C)nc1)C(=O)O; NMePhe(4-Cl) = CN[C@@H](Cc1ccc(Cl)cc1)C(=O)O; NMePhe(4-Me) = CN[C@@H](Cc1ccc(C)cc1)C(=O)O; NMeNle(6-CHF2) = CN[C@@H](CCCCC(F)F)C(=O)O; NMedβ3hAla = C[C@H](CC(=O)[*:2])N(C)[*:1]; NMeGly(cPent) = CN[C@H](C(=O)O)C1CCCC1; Phe(3-I) = N[C@@H](Cc1cccc(I)c1)C(=O)O; NMeCha = CN[C@@H](CC1CCCCC1)C(=O)O; Azetidine(3,3-F2) = FC1(F)CN(*)C1; NMeChg = CN[C@H](C(=O)O)C1CCCCC1; NMeF = CN[C@@H](Cc1ccccc1)C(=O)O; N(CH2CH2)2CF2 = FC1(F)CCN(*)CC1; NMeD = CN[C@@H](CC(=O)O)C(=O)O; NMeL = CN[C@@H](CC(C)C)C(=O)O; NMeV = CN[C@H](C(=O)O)C(C)C; d(β3hA) = C[C@@H](N)CC(=O)O; NMeA = CN[C@@H](C)C(=O)O; NMeAib = CNC(C)(C)C(=O)O; Piperidide = C1CCN(*)CC1; Pyrrolidide = C1CCN(*)C1; dNMeA = CN[C@H](C)C(=O)O; Ac5c = NC1(C(=O)O)CCCC1; Aze = O=C(O)[C@@H]1CCN1; Isopentyl = CC(C)CC*; Sar = CNCC(=O)O

These compounds were tested against T1, Kras and SOS1 (biotin-tagged human Kras loaded with GDP, His-tagged human SOS1) (Homo sapiens, UniProt P01116, G12D) (assay: Protein-protein interaction inhibition between Kras and SOS1 (KrasGl2D-SOS PPI) using AlphaScreen). Conditions: AlphaScreen; biotin-tagged human Kras loaded with GDP, His-tagged human SOS1; read-out: KRAS G12D-SOS PPI IC50.
T1 construct: made in house; host or cells: E. coli (stated for Kras only)
T1 sequence (P01116 1-188 isoform P01116-2 G12D): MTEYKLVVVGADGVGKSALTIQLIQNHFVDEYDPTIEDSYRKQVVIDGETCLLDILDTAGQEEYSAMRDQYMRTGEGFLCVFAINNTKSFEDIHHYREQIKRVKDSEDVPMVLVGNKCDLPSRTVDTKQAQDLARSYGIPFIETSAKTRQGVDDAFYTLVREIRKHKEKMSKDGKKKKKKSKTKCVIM
Type: binding
Method in brief: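 Donor beads (nickel) hold His-SOS1; acceptor beads (streptavidin) hold biotin-Kras bound to GDP. Signal measured at 520-620 nm following 680 nm excitation.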
Work on `CC[C@H](C)[C@@H]1NC(=O)[C@H](C)N(C)C(=O)C[C@@H](C)NC(=O)[C@H](C(C)C)N(C)C(=O)C2(CCCC2)NC(=O)[C@@H]2CCCN2C(=O)[C@H](CCc2ccc(C(F)(F)F)c(Cl)c2)NC(=O)[C@@H](C)N(C)C(=O)[C@H](CC2CCCCC2)N(C)C(=O)CN(C)C(=O)CN(C)C1=O` [Compound 773] (cyclo([Ac5c][NMeV][d(β3hA)][NMeA]I[Sar][Sar][NMeCha][dNMeA][hPhe(3-Cl-4-CF3)]P)) yielded an IC50 of 140 nM. With `CC[C@H](C)[C@@H]1NC(=O)[C@H](CC(C)C)N(C)C(=O)C[C@@H](C)N(C)C(=O)[C@H](C2CCCC2)N(C)C(=O)C2(CCCC2)NC(=O)[C@H](CC(=O)N2CCC(F)(F)CC2)N(C)C(=O)[C@H](CCc2ccc(C(F)(F)F)c(Cl)c2)NC(=O)CN(C)C(=O)[C@H](CC2CCCCC2)N(C)C(=O)[C@@H]2CCN2C(=O)[C@H](C)N(C)C1=O` [Compound 777] (cyclo([Ac5c][NMeGly(cPent)][NMedβ3hAla][NMeL]I[NMeA][Aze][NMeCha][Sar][hPhe(3-Cl-4-CF3)][NMeD](N(CH2CH2)2CF2))) the IC50 was 330 nM. `CC[C@H](C)[C@@H]1NC(=O)[C@H](C)N(C)C(=O)C[C@@H](C(=O)N2CCCC2)NC(=O)[C@H](CC(C)C)N(C)C(=O)[C@H](CCCCC(F)F)N(C)C(=O)[C@H](CC(C)C)NC(=O)[C@H](CCc2ccc(C(F)(F)F)cc2)NC(=O)CN(C)C(=O)[C@H](Cc2ccc(Cl)cc2)N(C)C(=O)CN(C)C(=O)CN(C)C1=O` [Compound 779] ([NMeA]I[Sar][Sar][NMePhe(4-Cl)][Sar][hPhe(4-CF3)]L[NMeNle(6-CHF2)][NMeL]D-Pyrrolidide; lactam N-11) showed an IC50 of 160 nM. In the case of `CC[C@H](C)[C@@H]1NC(=O)[C@H](CC(C)C)N(C)C(=O)C[C@@H](C(=O)N2CCS(=O)(=O)CC2)N(C)C(=O)[C@H](C2CCCC2)N(C)C(=O)C2(CCCC2)NC(=O)[C@H](CC(=O)N2CCC(F)(F)CC2)N(C)C(=O)[C@H](CCc2ccc(C(F)(F)F)c(Cl)c2)NC(=O)CN(C)C(=O)[C@H](CC2CCCCC2)N(C)C(=O)[C@@H]2CCN2C(=O)[C@H](C)N(C)C1=O` [Compound 780] ([NMeL]I[NMeA][Aze][NMeCha][Sar][hPhe(3-Cl-4-CF3)][NMeD](N(CH2CH2)2CF2)[Ac5c][NMeGly(cPent)][NMeD]-{Thiomorpholino(1,1-dioxo)}; lactam N-11), the IC50 is reported as 21 nM. `CC[C@H](C)[C@@H]1NC(=O)[C@H](C)N(C)C(=O)C[C@@H](C)NC(=O)[C@H](C(C)C)N(C)C(=O)[C@H](Cc2ccccc2)N(C)C(=O)[C@H](CC(C)C)N(C)C(=O)[C@H](CCc2ccc(C(F)(F)F)c(F)c2)NC(=O)CN(C)C(=O)[C@H](Cc2ccc(Cl)cc2)N(C)C(=O)[C@@H]2CCN2C(=O)CN(C)C1=O` [Compound 782] (cyclo([Aze][NMePhe(4-Cl)][Sar][hPhe(3-F,4-CF3)][NMeL][NMeF][NMeV][d(β3hA)][NMeA]I[Sar])) gave an IC50 of 21 nM. Work on `CC[C@H](C)[C@@H]1NC(=O)[C@H](CC(C)C)N(C)C(=O)C[C@@H](C(=O)N2CCCCC2)N(C)C(=O)[C@H](C2CCCCC2)N(C)C(=O)C2(CCCC2)NC(=O)[C@H](Cc2ccc(C)nc2)N(C)C(=O)[C@H](CCc2ccc(C(F)(F)F)c(Cl)c2)NC(=O)CN(C)C(=O)[C@H](CC2CCCCC2)N(C)C(=O)[C@@H]2CCN2C(=O)CN(C)C1=O` [Compound 786] ([NMeL]I[Sar][Aze][NMeCha][Sar][hPhe(3-Cl-4-CF3)][NMe3Pal(6-Me)][Ac5c][NMeChg][NMeD]-Piperidide; lactam N-11) yielded an IC50 of 6 nM. `CC[C@H](C)[C@@H]1NC(=O)[C@H](CC(C)C)N(C)C(=O)C[C@@H](C(=O)N2CCCCC2)N(C)C(=O)[C@H](CC(C)C)NC(=O)C(C)(C)N(C)C(=O)[C@H](Cc2ccccc2C(F)(F)F)NC(=O)[C@H](Cc2cccc(I)c2)NC(=O)CN(C)C(=O)[C@H](Cc2ccc(C)cc2)N(C)C(=O)[C@@H]2CCN2C(=O)CN(C)C1=O` [Compound 791] ([NMeL]I[Sar][Aze][NMePhe(4-Me)][Sar][Phe(3-I)][Phe(2-CF3)][NMeAib]L[NMeD]-Piperidide; lactam N-11) gave an IC50 of 320 nM. `CC[C@H](C)[C@@H]1NC(=O)[C@H](C)N(C)C(=O)C[C@@H](C(=O)N2CCCCC2)N(C)C(=O)[C@H](C(C)C)N(C)C(=O)[C@H](COC)NC(=O)[C@H](CC(=O)N2CC(F)(F)C2)N(C)C(=O)[C@H](CCc2ccc(C(F)(F)F)c(Cl)c2)NC(=O)CN(C)C(=O)[C@H](CC2CCCCC2)N(C)C(=O)CN(C)C(=O)CN(C)C1=O` [Compound 793] ([NMeA]I[Sar][Sar][NMeCha][Sar][hPhe(3-Cl-4-CF3)][NMeD](Azetidine(3,3-F2))S(Me)[NMeV][NMeD]-Piperidide; lactam N-11) gave an IC50 of 24 nM. Work on `CC(C)CCOC[C@@H]1NC(=O)[C@H](CC(C)C)N(C)C(=O)C[C@@H](C(=O)N2CCCCC2)N(C)C(=O)[C@H](C2CCCCC2)N(C)C(=O)C2(CCCC2)NC(=O)[C@@H]2CCCN2C(=O)[C@H](CCc2ccc(C(F)(F)F)c(Cl)c2)NC(=O)CN(C)C(=O)[C@H](CC2CCCCC2)N(C)C(=O)CN(C)C(=O)CN(C)C1=O` [Compound 794] ([NMeL]S(Isopentyl)[Sar][Sar][NMeCha][Sar][hPhe(3-Cl-4-CF3)]P[Ac5c][NMeChg][NMeD]-Piperidide; lactam N-11) yielded an IC50 of 11 nM.
